Measured values: patent US20110160311A1, “Sweetness Enhancers, Compositions Thereof, and Methods for Use” (The Coca-Cola Company, priority 2009, published 2011)

Key:
[1] = Sweetness enhancement of glucose, fructose or sucrose at 6% SE in water by additive at its threshold level; type: in vivo, human; design: key: T: Slight thicker-like sweetness (not intensity factor).; No difference; N(S+): No difference but slightly more sweet (0.5-0.75%); +S: More sweetness intensity (~1.0% SE); ++S: Much more sweetness intensity (~2.0% SE); details: room temperature, additive at its Table 1 threshold level; for Sensory result versus FRU 55,000 ppm: fructose at 6% SE in water; for Sensory result versus GLU 99,000 ppm: glucose at 6% SE in water; for Sensory result versus SUC 60,000 ppm: sucrose at 6% SE in water
Protocol: (§1) A first sip (approximately 2.2 mL) of a ca. 20 mL control composition was taken and swallowed. After waiting for a time ranging from 15 to 25 seconds, a second sip of control composition was taken and swallowed, and the sweetness and/or taste of the control composition was noted. After waiting for a time ranging from 15 to 25 seconds, these steps were repeated with a comparative composition. The sweetness and taste differences between the control and the comparative composition were noted. For each tested composition, this cycle was repeated once to confirm the initial findings. All samples were measured at average 23.0° C.±1° C. between samples for consistent comparison and to minimize any effects of temperature on the perceived taste or sweetness of the composition.
(§2) To perform the taste test, three sweetener samples were paired with one additive and taste tested as described above. A three minute break was taken before tasting another three sweetener samples paired with a different additive. Up to 10 additives per day were used to minimize a fatigue factor. Before tasting, at least 1.5 hours elapsed after ingestion of any food, drink or nicotine. The tests were repeated on a different date to validate the initial findings.
The twenty-one entities above were combined in a concentration at the sweetness detection threshold level listed in Table 1, with one of Glucose (GLU), Fructose (FRU), and Sucrose (SUG), each at a fixed SE (Sucrose Equivalents) level of 6%. The sweetness of the compositions was measured as described above at room temperature.

[2] = Sweetness detection threshold level in water, multi-sip and swallow taste method; type: in vivo, human; details: in water at room temperature
Description: As used herein, the terms “sweetness threshold,” “sweetness recognition threshold,” and “sweetness detection threshold” are understood to mean the level at which the lowest known concentration of a certain sweet compound that is perceivable by the human sense of taste and it can vary from person to person. For example, a typical sweetness threshold level for sucrose in water can be 0.5%.
Further for example, the at least one sweetness enhancer to be used can be assayed in water at least 25% lower and at least 25% higher than the sucrose detection level of 0.5% in water to determine the sweetness threshold level.
as §1, §2
The sweetness detection threshold levels for 21 entities were measured by a single assessor in water at room temperature according to the multi-sip and swallow taste method described herein.

[3] = value is min. off-taste threshold

| Compound | Sensory result versus FRU 55,000 ppm [1] | Sensory result versus GLU 99,000 ppm [1] | Sensory result versus SUC 60,000 ppm [1] | Sweetness Detection Threshold Level ([2]; single assessor) [ppm] | Sweetness Detection Threshold Level [2, 3] [ppm] |
| --- | --- | --- | --- | --- | --- |
| C=C1C[C@@]23CC[C@H]4[C@@](C)(CCC[C@@]4(C)C(=O)O[C@@H]4O[C@H](CO)[C@@H](O)[C@H](O)[C@H]4O)[C@@H]2CC[C@]1(O[C@@H]1O[C@H](CO)[C@@H](O)[C@H](O[C@@H]2O[C@H](CO)[C@@H](O[C@H]4O[C@H](CO)[C@@H](O)[C@H](O)[C@H]4O)[C@H](O)[C@H]2O)[C@H]1O[C@@H]1O[C@H](CO)[C@@H](O)[C@H](O)[C@H]1O)C3 [13-[(2-O-β-D-glucopyranosyl-3-O-(4-O-α-D-glucopyranosyl)-β-D-glucopyranosyl-β-D-glucopyranosyl)oxy] kaur-16-en-18-oic acid β-D-glucopyranosyl ester] | T | T | N | 50 |  |
| CC1=CC23CCC4C(C)(C(=O)OC5OC(CO)C(O)C(O)C5O)CCCC4(C)C2CCC1(OC1OC(CO)C(O)C(OC2OC(CO)C(O)C(O)C2O)C1OC1OC(CO)C(O)C(O)C1O)C3 [13-[(2-O-β-D-glucopyranosyl-3-O-β-D-glucopyranosyl-β-D-glucopyranosyl)oxy] kaur-15-en-18-oic acid β-D-glucopyranosyl ester] | N(S+) (No difference but slightly more sweet (0.5-0.75%)) | N | N(S+) (No difference but slightly more sweet (0.5-0.75%)) | 25 |  |
| C=C1C[C@@]23CC[C@H]4[C@@](C)(CCC[C@@]4(C)C(=O)O[C@@H]4O[C@H](CO)[C@@H](O)[C@H](O)[C@H]4O)[C@@H]2CC[C@]1(O[C@@H]1O[C@H](CO)[C@@H](O)[C@H](O[C@@H]2O[C@H](CO)[C@@H](O)[C@H](O)[C@H]2O)[C@H]1O)C3 [13-[(3-O-β-D-glucopyranosyl-β-D-glucopyranosyl)oxy] kaur-16-en-18-oic acid β-D-glucopyranosyl ester] | N | N | N | 35 |  |
| C=C1CC23CCC4C(C)(C(=O)OC5OC(CO)C(O)C(O)C5O)CCCC4(C)C2CCC1(O)C3 [13-hydroxy-kaur-16-en-18-oic acid β-D-glucopyranosyl ester] | N | N | N |  | 10 |
| C[C@@]12CC[C@@H]3[C@@](CC[C@H]4[C@@]3(C)CCC[C@@]4(C)C(=O)OC3OC(CO)C(O)C(O)C3O)(CC1=O)C2 (stereo partly drawn) [13-methyl-16-oxo-17-norkauran-18-oic acid β-D-glucopyranosyl ester] | N | N | N |  | 15 |
| C=C1C[C@@]23CC[C@H]4[C@@](C)(CCC[C@@]4(C)C(=O)O[C@@H]4O[C@H](CO)[C@@H](O)[C@H](O)[C@H]4O)[C@@H]2CC[C@]1(O[C@@H]1O[C@H](CO)[C@@H](O)[C@H](O)[C@H]1O[C@@H]1O[C@@H](C)[C@H](O)[C@@H](O)[C@H]1O)C3 [Dulcoside A] | N | N | N | 50 |  |
| C[C@H](CC[C@@H](O[C@@H]1O[C@H](CO[C@@H]2O[C@H](CO)[C@@H](O)[C@H](O)[C@H]2O)[C@@H](O)[C@H](O)[C@H]1O[C@@H]1O[C@H](CO)[C@@H](O)[C@H](O)[C@H]1O)C(C)(C)O)[C@H]1CC[C@@]2(C)[C@@H]3CC=C4[C@@H](CC[C@H](O[C@@H]5O[C@H](CO[C@@H]6O[C@H](CO)[C@@H](O)[C@H](O)[C@H]6O)[C@@H](O)[C@H](O)[C@H]5O)C4(C)C)[C@]3(C)[C@H](O)C[C@]12C [Mogroside V] | N | N | N | 20 |  |
| C=C1C[C@@]23CC[C@H]4[C@@](C)(CCC[C@@]4(C)C(=O)O[C@@H]4O[C@H](CO)[C@@H](O)[C@H](O)[C@H]4O)[C@@H]2CC[C@]1(O[C@@H]1O[C@H](CO)[C@@H](O)[C@H](O[C@@H]2O[C@H](CO)[C@@H](O)[C@H](O)[C@H]2O)[C@H]1O[C@@H]1O[C@H](CO)[C@@H](O)[C@H](O)[C@H]1O)C3 [Rebaudioside A] | N | N | N | 12.6 |  |
| C=C1C[C@@]23CC[C@H]4[C@@](C)(CCC[C@@]4(C)C(=O)O[C@@H]4O[C@H](CO)[C@@H](O)[C@H](O)[C@H]4O[C@@H]4O[C@H](CO)[C@@H](O)[C@H](O)[C@H]4O)[C@@H]2CC[C@]1(O[C@@H]1O[C@H](CO)[C@@H](O)[C@H](O[C@@H]2O[C@H](CO)[C@@H](O)[C@H](O)[C@H]2O)[C@H]1O[C@@H]1O[C@H](CO)[C@@H](O)[C@H](O)[C@H]1O)C3 [Rebaudioside D] | N | N | N(S+) (No difference but slightly more sweet (0.5-0.75%)) | 25 |  |
| C=C1C[C@@]23CC[C@H]4[C@@](C)(CCC[C@@]4(C)C(=O)OC4OC(C(=O)O)C(O)C(O)C4O)[C@@H]2CC[C@]1(O)C3 (stereo partly shown) [Steviol glucuronide] | N | N | N | 85 |  |
| C=C1C[C@@]23CC[C@H]4[C@@](C)(CCC[C@@]4(C)C(=O)O)[C@@H]2CC[C@]1(O[C@@H]1O[C@H](CO)[C@@H](O)[C@H](O)[C@H]1O[C@@H]1O[C@H](CO)[C@@H](O)[C@H](O)[C@H]1O)C3 [Steviolbioside] | N | N | N | 50 |  |
| C=C1C[C@@]23CC[C@H]4[C@@](C)(CCC[C@@]4(C)C(=O)O[C@@H]4O[C@H](CO)[C@@H](O)[C@H](O)[C@H]4O)[C@@H]2CC[C@]1(O[C@@H]1O[C@H](CO)[C@@H](O)[C@H](O)[C@H]1O[C@@H]1O[C@H](CO)[C@@H](O)[C@H](O)[C@H]1O)C3 [Stevioside] | N | N | N | 25 |  |
| Rebaudioside F | N | N | N(S+) (No difference but slightly more sweet (0.5-0.75%)) | 25 |  |
